Patent US20220144812A1, “QUINOLINE DERIVATIVES AND THEIR USE FOR THE TREATMENT OF CANCER” (Epizyme, Inc., priority 2019, published 2022)
pIC50: −log10 of the molar value. Where two headings read alike, the source gives them in different places.

Columns and labels:
[1] = tested on: 647V cells; assay: High throughput proliferation (HTP) assay; format: cell-based; conditions: read-out: CREBBP HTP IC50
In short: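 Exponentially growing 647V cells in DMEM with 15% FBS were treated in triplicate with increasing compound concentrations at 37° C, 5% CO2. Viable cell number was read by CellTiter-Glo luminescence on day 7; IC50 in micromolar.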

[2] = target: T1, EP300 (P300(1048-1664)) (Homo sapiens, UniProt Q09472); assay: Biochemical assay for EP300, SAMDI; conditions: read-out: EP300 Biochemistry IC50
T1 construct: P300(1048-1664)
T1 sequence (Q09472 1048-1664): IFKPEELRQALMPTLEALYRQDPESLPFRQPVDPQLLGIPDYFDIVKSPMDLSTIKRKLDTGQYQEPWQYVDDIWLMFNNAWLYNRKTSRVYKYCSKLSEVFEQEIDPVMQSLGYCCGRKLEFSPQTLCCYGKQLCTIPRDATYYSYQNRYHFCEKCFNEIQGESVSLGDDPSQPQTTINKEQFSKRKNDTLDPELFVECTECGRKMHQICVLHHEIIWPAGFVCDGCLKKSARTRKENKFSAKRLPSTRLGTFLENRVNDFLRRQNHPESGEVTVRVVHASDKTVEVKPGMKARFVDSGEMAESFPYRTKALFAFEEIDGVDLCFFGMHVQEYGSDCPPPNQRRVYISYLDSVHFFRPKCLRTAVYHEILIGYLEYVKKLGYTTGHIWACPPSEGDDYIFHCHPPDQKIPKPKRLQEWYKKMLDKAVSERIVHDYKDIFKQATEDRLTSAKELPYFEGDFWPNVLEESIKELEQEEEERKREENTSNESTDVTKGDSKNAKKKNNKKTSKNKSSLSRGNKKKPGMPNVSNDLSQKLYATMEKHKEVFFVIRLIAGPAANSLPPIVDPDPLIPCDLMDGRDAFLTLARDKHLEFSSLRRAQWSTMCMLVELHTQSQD
From the text: The following example describes materials and methods relating to a biochemical assay for EP300. IC50 values (micromolar (μM)) are summarized in Table 1, Table 2, and Table 3 under the column labeled: “EP300 Biochemistry IC50 (micromolar).”

[3] = tested on: H3K18Ac in HB-CLS-2 cells; assay: H3K18AC in-cell western (ICW) assay; format: cell-based; conditions: read-out: CREBBP ICW IC50
In short: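 HB-CLS-2 cells seeded 16–24 hours before 2 hr compound treatment at 37° C, 5% CO2, then methanol-fixed. H3K18Ac detected with rabbit monoclonal primary (overnight, 4° C) and 800CW anti-rabbit secondary; DRAQ5 stained DNA. Plates imaged at 700 and 800 nm for integrated intensity; IC50 in μM.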

[4] = target: T2, CREBBP (1084-1701) (Homo sapiens, UniProt Q92793); assay: Biochemical assay for CREBBP (1084-1701), SAMDI; conditions: read-out: CREBBP Biochemistry IC50
T2 construct: measured in the following biochemical assay using CREBBP (1084-1701); purchased
In short: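 CREBBP (1084-1701) preincubated with compound 30 min at RT, then substrate mix (biotin-H3 11-25 K14R/K23R peptide, acetyl-CoA) added for 30 min at RT. Reaction stopped with formic acid, neutralised with sodium bicarbonate. Peptide acetylation read by SAMDI mass spectrometry to derive IC50.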

[5] = Homo sapiens, 647-V, high throughput proliferation
[6] = Homo sapiens, 647-V, high throughput proliferation, 647V cells
[7] = H3K18Ac in-cell western, HB-CLS-2 cells

T2 sequence (Q92793 1084-1701): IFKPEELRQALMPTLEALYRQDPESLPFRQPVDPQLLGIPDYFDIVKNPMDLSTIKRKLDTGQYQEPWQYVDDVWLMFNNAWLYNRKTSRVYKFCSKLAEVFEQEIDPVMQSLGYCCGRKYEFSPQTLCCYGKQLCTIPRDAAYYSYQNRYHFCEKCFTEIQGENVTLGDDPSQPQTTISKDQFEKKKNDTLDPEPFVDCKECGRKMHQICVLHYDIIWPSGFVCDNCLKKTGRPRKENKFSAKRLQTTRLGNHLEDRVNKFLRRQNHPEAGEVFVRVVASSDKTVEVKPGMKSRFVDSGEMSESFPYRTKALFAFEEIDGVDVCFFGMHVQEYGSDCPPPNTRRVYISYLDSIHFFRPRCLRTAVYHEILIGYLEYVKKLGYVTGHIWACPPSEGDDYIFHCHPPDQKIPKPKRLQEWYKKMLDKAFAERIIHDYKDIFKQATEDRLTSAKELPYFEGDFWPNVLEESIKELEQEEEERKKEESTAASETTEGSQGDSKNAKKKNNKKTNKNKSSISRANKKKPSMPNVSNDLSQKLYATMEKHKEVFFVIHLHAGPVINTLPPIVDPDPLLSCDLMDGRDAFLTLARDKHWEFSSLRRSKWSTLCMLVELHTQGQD

| SMILES | pIC50 ([2]; EP300, SAMDI) | pIC50 ([3]; H3K18Ac in-cell western) | pIC50 ([4]; SAMDI) | pIC50 [3, 7] | pIC50 ([2]; P300(1048-1664), Peptide #233, Ac-CoA, SAMDI mass spectrometry) | pIC50 ([3]; 2 h, H3K18Ac in HB-CLS-2 cells, 2 hrs compound incubation) | pIC50 ([4]; Peptide #233, Acetyl-CoA, SAMDI mass spectrometry) | pIC50 [1, 5] | pIC50 [1, 6] | pIC50 ([1]; high throughput proliferation) | pIC50 ([1]; Homo sapiens, 647-V, 168 h, 647V cells, day 7, CellTiter-Glo) |
| --- | --- | --- | --- | --- | --- | --- | --- | --- | --- | --- | --- |
| CCn1ncc(CN(C)C(=O)c2nc(-c3ccc(OCCO)cc3Cl)nc3ccc(Cl)cc23)c1C [Compound 32] | 6.48 | 6.57 | 6.82 |  |  |  |  | 6.82 |  |  |  |
| CCn1ncc(CN(C)C(=O)c2nc(-c3cc(C)c4nc[nH]c4c3)nc3ccc(COC)cc23)c1C [Compound 439] | 6.20 | 6.04 | 6.77 |  |  |  |  | 6.12 |  |  |  |
| CCn1ncc(CN(C)C(=O)c2nc(-c3ccc(OCCCNC)cc3C)nc3ccc(Cl)cc23)c1C [Compound 33] | 7.28 | 6.57 | 7.17 |  |  |  |  | 6.74 |  |  |  |
| CCn1ncc(CN(C)C(=O)c2cc(-c3csc(C)n3)nc3ccc(Cl)cc23)c1C [Compound 90] | 6.68 | 5.80 | 6.47 |  |  |  |  |  |  | 5.82 |  |
| CCn1ncc(CN(C)C(=O)c2nc(-c3ccc(OCC(O)CN4CCCC4)cc3Cl)nc3ccc(Cl)cc23)c1C (stereo not shown) [Compound 15] | 7.92 | 6.82 | 7.55 |  |  |  |  | 7.19 |  |  |  |
| CCc1ncc(CN(C)C(=O)c2nc(-c3cc(C)nc(NCCNC)c3)nc3ccc(COC)cc23)n1C [Compound 527] | 7.67 | 6.10 | 7.17 |  |  |  |  | 6.53 |  |  |  |
| CCn1ncc(CN(C)C(=O)c2nc(-c3cc(C)nc(NCCN(C)C)c3)nc3ccc(Cl)cc23)c1C [Compound 470] | 8.00 | 7.31 | 7.73 |  |  |  |  |  |  | 7.59 |  |
| CCn1ncc(CN(C)C(=O)c2cc(-c3ccc(NCC(O)CNC)c(C)n3)nc3ccc(Cl)cc23)c1C (stereo not shown) [Compound 457] | 8.24 | 6.73 | 7.81 |  |  |  |  | 7.38 |  |  |  |
| CCc1ncc(CN(C)C(=O)c2nc(-c3cc(C)nc(NCCN(C)C)c3)nc3ccc(Cl)cc23)n1C [Compound 583] | 7.85 | 7.53 | 7.47 |  |  |  |  | 7.97 |  |  |  |
| CCn1ncc(CN(C)C(=O)c2cc(-c3ccc(NC4COC4)c(C)n3)nc3ccc(Cl)cc23)c1C [Compound 454] | 8.26 | 6.85 | 7.64 |  |  |  |  | 6.88 |  |  |  |
| CCc1ncc(CN(C)C(=O)c2cc(-c3cc(C(=O)NC)n(C)n3)nc3ccc(Cl)cc23)n1C [Compound 512] | 8.40 | 6.98 | 7.82 |  |  |  |  | 6.96 |  |  |  |
| CCn1ncc(CN(C)C(=O)c2cc(-c3cc(NCCNC)cc(C)n3)nc3ccc(Cl)cc23)c1C [Compound 409] | 7.64 |  | 7.13 | 6.64 |  |  |  |  | 7.27 |  |  |
| CCn1ncc(CN(C)C(=O)c2cc(-c3ccc(NCC(=O)NC)c(C)n3)nc3ccc(Cl)cc23)c1C [Compound 395] | 7.43 |  | 7.43 | 6.57 |  |  |  |  | 6.39 |  |  |
| CCc1ncc(CN(C)C(=O)c2cc(-c3ccc(NC4CCOCC4)c(C)n3)nc3ccc(Cl)cc23)n1C [Compound 517] | 7.92 | 6.80 | 7.44 |  |  |  |  | 6.97 |  |  |  |
| CCn1ncc(CN(C)C(=O)c2nc(-c3cc(C)cc(NC4CNCC4(F)F)c3)nc3ccc(Cl)cc23)c1C (stereo not shown) [Compound 554] | 6.76 | 5.97 | 7.27 |  |  |  |  | 5.78 |  |  |  |

Now from value to molecule, other results behind:

| pIC50 ([2]; EP300, SAMDI) | pIC50 ([3]; H3K18Ac in-cell western) | pIC50 ([4]; SAMDI) | pIC50 [3, 7] | pIC50 ([2]; P300(1048-1664), Peptide #233, Ac-CoA, SAMDI mass spectrometry) | pIC50 ([3]; 2 h, H3K18Ac in HB-CLS-2 cells, 2 hrs compound incubation) | pIC50 ([4]; Peptide #233, Acetyl-CoA, SAMDI mass spectrometry) | SMILES | pIC50 [1, 5] | pIC50 [1, 6] | pIC50 ([1]; high throughput proliferation) | pIC50 ([1]; Homo sapiens, 647-V, 168 h, 647V cells, day 7, CellTiter-Glo) |
| --- | --- | --- | --- | --- | --- | --- | --- | --- | --- | --- | --- |
| 5.22 | 5.62 | 5.14 |  |  |  |  | CCn1ncc(CN(C)C(=O)c2cc(-c3ccc(NCCNC)c(C)n3)nc3cc(COC)ccc23)c1C [Compound 492] | 5.78 |  |  |  |
| 6.41 | 6.14 | 6.49 |  |  |  |  | CCn1ncc(CN(C)C(=O)c2cc(-c3cc(CNC)cc(C)n3)nc3ccc(Cl)cc23)c1C [Compound 473] | 6.42 |  |  |  |
| 7.38 |  | 7.37 | 6.89 |  |  |  | CCn1ncc(CN(C)C(=O)c2cc(-c3cc(NC(=O)CNC)cc(C)n3)nc3ccc(Cl)cc23)c1C [Compound 397] |  | 6.80 |  |  |
| 4.36 | 4.80 | 4.07 |  |  |  |  | CCn1ncc(CN(C)C(=O)c2nc(-c3cc(CN(C)Cc4ccc(OC)cc4)nn3C)nc3ccc(Cl)cc23)c1C [Compound 176] | 5.09 |  |  |  |
| 7.92 | 6.48 | 7.47 |  |  |  |  | CCn1ncc(CN(C)C(=O)c2nc(-c3ccc(O[C@@H]4CNC[C@H]4O)cc3Cl)nc3ccc(Cl)cc23)c1C [Compound 38] | 6.64 |  |  |  |
| 6.11 | 6.14 | 6.42 |  |  |  |  | CCn1ncc(CN(C)C(=O)c2nc(-c3ccc(OCCCO)c(C)c3)nc3ccc(Cl)cc23)c1C [Compound 66] | 6.27 |  |  |  |
| 8.13 | 6.82 | 8.34 |  |  |  |  | CCn1ncc(CN(C)C(=O)c2nc(-c3cc(N)cc(Cl)c3)nc3ccc(Cl)cc23)c1C [Compound 16] | 6.80 |  |  |  |
| 4.46 |  | 4.30 | 4.70 |  |  |  | CCn1ncc(CN(C)C(=O)c2nc(-c3cc(C(=O)Nc4ccccc4)n(C)n3)nc3ccc(Cl)cc23)c1C [Compound 396] |  | 5.08 |  |  |
| 7.55 | 7.14 | 7.44 |  |  |  |  | Cc1nc(-c2cc(C(=O)N(C)Cc3cnn(CC(F)(F)F)c3C)c3cc(Cl)ccc3n2)ccc1NCCN(C)C [Compound 597] | 7.10 |  |  |  |
| 6.55 | 6.50 | 6.98 |  |  |  |  | Cc1nc(-c2cc(C(=O)N(C)Cc3cnc(C(F)(F)F)n3C)c3cc(Cl)ccc3n2)ccc1NCCN(C)C [Compound 598] | 6.55 |  |  |  |
| 6.76 | 6.77 | 7.27 |  |  |  |  | CCc1nc(-c2cc(C(=O)N(C)Cc3onc(CC)c3C)c3cc(COC)ccc3n2)ccc1NCCN(C)C [Compound 593] | 6.99 |  |  |  |
| 8.00 | 6.77 | 7.64 |  |  |  |  | CCn1ncc(CN(C)C(=O)c2nc(-c3cc(C(=O)NC)n(C)n3)nc3ccc(Cl)cc23)c1C [Compound 18] | 6.66 |  |  |  |
| 6.14 | 5.57 | 5.89 |  |  |  |  | CCn1ncc(CN(C)C(=O)c2nc(-c3ccc(NCCNC)cn3)nc3ccc(Cl)cc23)c1C [Compound 112] | 5.68 |  |  |  |
| 5.33 | 5.59 | 5.19 |  |  |  |  | CCn1ncc(CN(C)C(=O)c2nc(-c3ccc(OCCO)c(F)c3)nc3ccc(Cl)cc23)c1C [Compound 111] | 5.62 |  |  |  |
| 6.62 | 6.15 | 6.36 |  |  |  |  | CCn1ncc(CN(C)C(=O)c2cc(-c3cccc(N)n3)nc3ccc(Cl)cc23)c1C [Compound 63] | 5.82 |  |  |  |
|  |  |  |  | 8.34 | 7.38 | 8.49 | CCn1ncc(CN(C)C(=O)c2nc(-c3cnc4n[nH]c(NC)c4c3)nc3ccc(Cl)cc23)c1C [Compound 632] |  |  |  | 6.98 |
| 7.96 | 5.35 | 7.45 |  |  |  |  | CCn1ncc(CN(C)C(=O)c2cc(-c3ccc(NCC(CN(C)C)OC)c(C)n3)nc3ccc(Cl)cc23)c1C (stereo not shown) [Compound 592] | 5.14 |  |  |  |
| 6.85 | 6.59 | 7.55 |  |  |  |  | CCn1ncc(CN(C)C(=O)c2nc(-c3ccc(OCCCNC(C)C)c(C)c3)nc3ccc(Cl)cc23)c1C [Compound 31] | 6.89 |  |  |  |
| 6.97 | 6.60 | 7.50 |  |  |  |  | CCn1ncc(CN(C)C(=O)c2cc(-c3cc4c(N)n[nH]c4c(C)n3)nc3ccc(Cl)cc23)c1C [Compound 519] | 6.49 |  |  |  |
